Patent US20150105252A1, “SUBSTITUTED PYRAZOLES AS HERBICIDES” (E I DU PONT DE NEMOURS AND COMPANY, priority 2013, published 2015)

How the values were obtained:
lambsquarters [1] = experiment: Test C preemergence; format: in vivo, Chenopodium album; details: for Lambsquarters plant response rating: scale 0 to 100 (0 no effect, 100 complete control)
Method in brief: (§1)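 Greenhouse pot test: preemergence application onto freshly seeded loam/sand mix, postemergence application onto seedlings (1–4 leaves, 2–18 cm) in peat-vermiculite substrate. Responses scored visually 13 to 15 days later relative to controls, where 0 means no effect and 100 means complete control; a dash indicates no result.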

blackgrass = experiment: Test C postemergence; format: in vivo, Alopecurus myosuroides
Method in brief: as §1

wheat = experiment: Test C postemergence; format: in vivo, Triticum aestivum
Method in brief: as §1

galium = experiment: Test C postemergence; format: in vivo, Galium aparine
Method in brief: as §1

crabgrass, large = experiment: Test C postemergence; format: in vivo, Digitaria sanguinalis
Method in brief: as §1

lambsquarters [2] = experiment: Test C postemergence; format: in vivo, Chenopodium album
Method in brief: as §1

morningglory = experiment: Test C postemergence; format: in vivo, Ipomoea coccinea
Method in brief: as §1

pigweed = experiment: Test C postemergence; format: in vivo, Amaranthus retroflexus
Method in brief: as §1

barnyardgrass = experiment: Test C postemergence; format: in vivo, Echinochloa crus-galli
Method in brief: as §1

waterhemp = experiment: Test C postemergence; format: in vivo, Amaranthus rudis
Method in brief: as §1

oat, wild = experiment: Test C postemergence; format: in vivo, Avena fatua
Method in brief: as §1

kochia = experiment: Test C postemergence; format: in vivo, Kochia scoparia
Method in brief: as §1

velvetleaf = experiment: Test C postemergence; format: in vivo, Abutilon theophrasti
Method in brief: as §1

chickweed = experiment: Test C postemergence; format: in vivo, Stellaria media
Method in brief: as §1

[3] = Postemergence, 31 g ai/ha, visually evaluated after 13 to 15 days
[4] = postemergence, 62 g ai/ha, scale 0 to 100
[5] = postemergence, 250 g ai/ha, scale 0 to 100 (0 no effect, 100 complete control)
[6] = postemergence, 125 g ai/ha, scale 0 to 100, 0 no effect, 100 complete control

**Q.** Which “Plant response rating (scale of 0 to 100), Lambsquarters” value (lambsquarters [1]; Preemergence, 250 g ai/ha) does the source give for CCCc1cc(C(=O)NCC)nn1Cc1cc(C(F)(F)F)nn1C [Compound 129] here?
**A.** 100

**Q.** And the “Lambsquarters plant response rating” value (lambsquarters [1]; preemergence, 31 g ai/ha, visual rating, 13 to 15 days)?
**A.** 98

**Q.** What about the “Lambsquarters plant response rating” value (lambsquarters [1]; preemergence, 62 g ai/ha, 13 to 15 days) of the same molecule?
**A.** 100

**Q.** And the “Plant response rating, Lambsquarters” value (lambsquarters [1]; preemergence, 125 g ai/ha, 13 to 15 days, scale 0 to 100, 0 = no effect, 100 = complete control)?
**A.** 100

**Q.** And the “Plant response rating (scale of 0 to 100 where 0 is no effect and 100 is complete control), Blackgrass” value (blackgrass; [3])?
**A.** 10

**Q.** And the “Blackgrass plant response rating” value (blackgrass; [4])?
**A.** 5

**Q.** What about the “Plant response rating, Blackgrass” value (blackgrass; [5]) of the same molecule?
**A.** 20

**Q.** And the “Plant response rating, Blackgrass” value (blackgrass; [6])?
**A.** 35

**Q.** What about the “Plant response rating (scale of 0 to 100 where 0 is no effect and 100 is complete control), Wheat” value (wheat; [3]) of the same molecule?
**A.** 0

**Q.** And the “Wheat plant response rating” value (wheat; [4])?
**A.** 5

**Q.** What about the “Plant response rating, Wheat” value (wheat; [5]) of the same molecule?
**A.** 5

**Q.** What about the “Plant response rating, Wheat” value (wheat; [6]) of the same molecule?
**A.** 5

**Q.** What about the “Plant response rating (scale of 0 to 100 where 0 is no effect and 100 is complete control), Galium” value (galium; [3]) of the same molecule?
**A.** 60

**Q.** And the “Galium plant response rating” value (galium; [4])?
**A.** 65

**Q.** And the “Plant response rating, Galium” value (galium; [5])?
**A.** 80

**Q.** What about the “Plant response rating, Galium” value (galium; [6]) of the same molecule?
**A.** 80

**Q.** What about the “Plant response rating (scale of 0 to 100 where 0 is no effect and 100 is complete control), Crabgrass, Large” value (crabgrass, large; [3]) of the same molecule?
**A.** 10

**Q.** And the “Crabgrass, Large plant response rating” value (crabgrass, large; [4])?
**A.** 10

**Q.** And the “Plant response rating, Crabgrass, Large” value (crabgrass, large; [5])?
**A.** 20

**Q.** What about the “Plant response rating, Crabgrass, Large” value (crabgrass, large; [6]) of the same molecule?
**A.** 35

**Q.** And the “Plant response rating (scale of 0 to 100 where 0 is no effect and 100 is complete control), Lambsquarters” value (lambsquarters [2]; [3])?
**A.** 55

**Q.** What about the “Lambsquarters plant response rating” value (lambsquarters [2]; [4]) of the same molecule?
**A.** 100

**Q.** What about the “Plant response rating, Lambsquarters” value (lambsquarters [2]; [5]) of the same molecule?
**A.** 98

**Q.** And the “Plant response rating, Lambsquarters” value (lambsquarters [2]; [6])?
**A.** 98

**Q.** And the “Plant response rating (scale of 0 to 100 where 0 is no effect and 100 is complete control), Morningglory” value (morningglory; [3])?
**A.** 80

**Q.** And the “Morningglory plant response rating” value (morningglory; [4])?
**A.** 100

**Q.** What about the “Plant response rating, Morningglory” value (morningglory; [5]) of the same molecule?
**A.** 100

**Q.** What about the “Plant response rating, Morningglory” value (morningglory; [6]) of the same molecule?
**A.** 100

**Q.** And the “Plant response rating (scale of 0 to 100 where 0 is no effect and 100 is complete control), Pigweed” value (pigweed; [3])?
**A.** 85

**Q.** What about the “Pigweed plant response rating” value (pigweed; [4]) of the same molecule?
**A.** 95

**Q.** And the “Plant response rating, Pigweed” value (pigweed; [5])?
**A.** 95

**Q.** What about the “Plant response rating, Pigweed” value (pigweed; [6]) of the same molecule?
**A.** 100

**Q.** And the “Plant response rating (scale of 0 to 100 where 0 is no effect and 100 is complete control), Barnyardgrass” value (barnyardgrass; [3])?
**A.** 5

**Q.** And the “Barnyardgrass plant response rating” value (barnyardgrass; [4])?
**A.** 10

**Q.** And the “Plant response rating, Barnyardgrass” value (barnyardgrass; [5])?
**A.** 55

**Q.** And the “Plant response rating, Barnyardgrass” value (barnyardgrass; [6])?
**A.** 10

**Q.** And the “Plant response rating (scale of 0 to 100 where 0 is no effect and 100 is complete control), Waterhemp” value (waterhemp; [3])?
**A.** 65

**Q.** And the “Waterhemp plant response rating” value (waterhemp; [4])?
**A.** 90

**Q.** And the “Plant response rating, Waterhemp” value (waterhemp; [5])?
**A.** 90

**Q.** And the “Plant response rating, Waterhemp” value (waterhemp; [6])?
**A.** 80

**Q.** What about the “Plant response rating (scale of 0 to 100 where 0 is no effect and 100 is complete control), Oat, Wild” value (oat, wild; [3]) of the same molecule?
**A.** 30

**Q.** What about the “Oat, Wild plant response rating” value (oat, wild; [4]) of the same molecule?
**A.** 30

**Q.** And the “Plant response rating, Oat, Wild” value (oat, wild; [5])?
**A.** 35

**Q.** And the “Plant response rating, Oat, Wild” value (oat, wild; [6])?
**A.** 35

**Q.** And the “Plant response rating (scale of 0 to 100 where 0 is no effect and 100 is complete control), Kochia” value (kochia; [3])?
**A.** 90

**Q.** What about the “Kochia plant response rating” value (kochia; [4]) of the same molecule?
**A.** 90

**Q.** What about the “Plant response rating, Kochia” value (kochia; [5]) of the same molecule?
**A.** 90

**Q.** And the “Plant response rating, Kochia” value (kochia; [6])?
**A.** 90

**Q.** What about the “Plant response rating (scale of 0 to 100 where 0 is no effect and 100 is complete control), Velvetleaf” value (velvetleaf; [3]) of the same molecule?
**A.** 25

**Q.** What about the “Velvetleaf plant response rating” value (velvetleaf; [4]) of the same molecule?
**A.** 65

**Q.** What about the “Plant response rating (scale of 0 to 100 where 0 is no effect and 100 is complete control), Chickweed” value (chickweed; [3]) of the same molecule?
**A.** 50

**Q.** What about the “Chickweed plant response rating” value (chickweed; [4]) of the same molecule?
**A.** 70

**Q.** And the “Plant response rating, Chickweed” value (chickweed; [5])?
**A.** 100

**Q.** What about the “Plant response rating, Chickweed” value (chickweed; [6]) of the same molecule?
**A.** 80
